Patent US8778938B2, “Hepatitis C virus inhibitors” (priority 2010, dated 2014)
pEC50: −log10 of the molar value.

How the values were obtained:
HCV 1b genotype replicon = assay: HCV replicon assay, qRT-PCR (HCV RNA detection), genotype 1b replicon EC50; type: cell-based; conditions: Hepatitis C virus, read-out: 1b EC50
Excerpt: HCV replicon cell lines (kindly provided by R. Bartenschlager) isolated from colonies as described by Lohman et al. (Lohman et al. (1999) Science 285: 110-113, expressly incorporated by reference in its entirety) and used for all experiments. The HCV replicon has the nucleic acid sequence set forth in EMBL Accession No.: AJ242651, the coding sequence of which is from nucleotides 1801 to 8406.
The coding sequence of the published HCV replicon was synthesized and subsequently assembled in a modified plasmid pBR322 (Promega, Madison, Wis.) using standard molecular biology techniques. […]
EC50 values of single agent compounds were determined by HCV RNA detection using quantitative RT-PCR, according to the manufacturer's instructions, with a TAQMAN® One-Step RT-PCR Master Mix Reagents Kit (Cat #AB 4309169, Applied Biosystems) on an ABI Model 7500 thermocycler. EC50 values of combinations are similarly determined by HCV RNA detection using quantitative RT-PCR. The TAQMAN primers to use for detecting and quantifying HCV RNA obtained from Integrated DNA Technologies. HCV RNA is normalized to GAPDH RNA levels in drug-treated cells, which is detected and quantified using the Human GAPDH Endogenous Control Mix (Applied Biosystems, AB 4310884E). […] Chemical agent cytotoxicity is evaluated using an MTS assay according to the manufacturer's directions (Promega). […]

HCV 1a genotype replicon = assay: HCV replicon assay, qRT-PCR (HCV RNA detection), genotype 1a replicon EC50; type: cell-based; conditions: Hepatitis C virus, read-out: 1a EC50

COC(=O)N[C@H](C(=O)N1CCC[C@H]1c1nc(-c2ccc(-c3ccc(-c4c[nH]c([C@@H]5C[C@@]6(CCCO6)CN5C(=O)[C@@H](NC(=O)OC)C(C)C)n4)cc3)cc2)c[nH]1)C(C)C [Compound 83]
pEC50 (HCV 1b genotype replicon): 10.72

COC(=O)N[C@H](C(=O)N1CCC[C@H]1c1ncc(-c2ccc(-c3ccc(-c4cnc([C@@H]5C[C@H](C6CC6)CN5C(=O)[C@@H](NC(=O)OC)C(C)C)[nH]4)cc3)cc2)[nH]1)C(C)C [Compound A83]
pEC50 (HCV 1a genotype replicon): 10.15

COC(=O)N[C@H](C(=O)N1C[C@@H](C2CC2)C[C@H]1c1ncc(-c2ccc(-c3ccc(-c4cnc([C@@H]5C[C@H](C6CC6)CN5C(=O)[C@@H](NC(=O)OC)C(C)C)[nH]4)cc3)cc2)[nH]1)C(C)C [Compound A229]
pEC50 (HCV 1b genotype replicon): 10.06
